From patent publication US20240358017A1, “SPIDER WEB ERADICATION AND SPIDER REPELLANT COMPOUND AND METHODS OF USE” (DALRAY, LLC., priority 2023, published 2024)

Test system: spider web
Assay: web eradication / degradation of spider webs by the formulations
Parameters: species or system spiders
Conditions: comparison among the presented formulations; research by the inventors to-date
Description: As to the organic acid components of the above formulations, the chemical reaction for web degradation is exemplified by the following: As mentioned, the pH of compositions within the present invention(s) is an important feature of efficacy. […] As compositions of the present invention(s) are fabricated, the constituencies should be adjusted, as needed, to achieve end products of such acidity. Use of the formulations of the present invention is straight forward. In the simplest form, the solutions can be applied by a simple hand-pump garden sprayer. More pressurized, long-reach delivery may be achieved through various motorized pump systems as are readily available in the marketplace. After observed degradation of the target webs, the resulting “clumps” of digested webs may be simply rinsed from any surface with water.

## Lauramidopropyl Betaine
  efficacy of web eradication (web degradation): effectively equivalent performance as Cocamipropyl Betaine
